Experimental findings from patent publication US12590091B2, “1H-pyrrolo[3,2-C]pyridine and 1H-pyrrolo[2,3-C]pyridine derivatives as TLR9 inhibitors for the treatment of fibrosis” (BRISTOL-MYERS SQUIBB COMPANY, priority 2020, dated 2026) are described below.

The assay addresses T1, human TLR8 (Homo sapiens, UniProt Q9NR97).
T1 construct: host or cells: HEK-Blue cells
T1 sequence (Q9NR97 27-1041): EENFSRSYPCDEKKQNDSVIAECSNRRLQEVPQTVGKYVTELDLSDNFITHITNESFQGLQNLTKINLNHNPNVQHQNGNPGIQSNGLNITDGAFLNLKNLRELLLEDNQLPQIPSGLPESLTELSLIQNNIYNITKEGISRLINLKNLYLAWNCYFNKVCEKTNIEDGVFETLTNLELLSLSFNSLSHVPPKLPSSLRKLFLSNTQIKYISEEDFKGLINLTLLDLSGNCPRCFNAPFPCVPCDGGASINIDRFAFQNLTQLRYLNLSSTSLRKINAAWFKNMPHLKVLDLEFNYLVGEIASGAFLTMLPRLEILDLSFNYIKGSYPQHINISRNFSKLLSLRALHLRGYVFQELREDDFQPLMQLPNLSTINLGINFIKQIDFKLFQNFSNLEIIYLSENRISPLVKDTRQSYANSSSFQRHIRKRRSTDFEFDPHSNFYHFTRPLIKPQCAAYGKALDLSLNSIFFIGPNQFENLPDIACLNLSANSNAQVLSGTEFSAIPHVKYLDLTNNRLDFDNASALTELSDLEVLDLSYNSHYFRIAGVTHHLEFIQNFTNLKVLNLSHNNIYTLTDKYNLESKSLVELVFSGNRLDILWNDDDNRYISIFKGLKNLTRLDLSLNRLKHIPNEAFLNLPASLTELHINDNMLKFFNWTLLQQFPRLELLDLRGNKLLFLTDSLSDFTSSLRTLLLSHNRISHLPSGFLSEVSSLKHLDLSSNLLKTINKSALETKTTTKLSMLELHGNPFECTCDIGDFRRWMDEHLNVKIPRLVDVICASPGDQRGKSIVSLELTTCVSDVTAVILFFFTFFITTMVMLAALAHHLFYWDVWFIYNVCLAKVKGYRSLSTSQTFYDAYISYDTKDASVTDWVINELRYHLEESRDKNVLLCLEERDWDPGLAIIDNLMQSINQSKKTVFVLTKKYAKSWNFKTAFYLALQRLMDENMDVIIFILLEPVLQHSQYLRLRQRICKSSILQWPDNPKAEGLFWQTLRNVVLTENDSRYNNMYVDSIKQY
As to the kind of experiment: TLR8 inhibition reporter assay (HEK-Blue cells, SEAP reporter). The settings on record: HEK-Blue cells overexpressing human TLR8, stimulated with R848 15.9 μM, 22 hour incubation. The format is cell-based. The procedure, abridged:
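Human TLR7/8/9 HEK-Blue reporter lines; dose range 0.05 nM–50 μM; 30 min RT preincubation; stimulus gardiquimod 7.5 μM / R848 15.9 μM / ODN2006 5 nM respectively; 22 h, 37 °C; SEAP detected colorimetrically.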
(In a reporter assay the amount or activity of a reporter protein is the signal.)
Usually IC50 stands for the point on the concentration scale where inhibition reaches its midpoint. `Cc1nc(-c2ccc(C3(O)CCN(C(C)C)CC3)cc2F)cc2c1cc(-c1ccc(S(C)(=O)=O)cc1)n2C` [Example 109, 4-(4-(1,4-dimethyl-2-(4-(methylsulfonyl)phenyl)-1H-pyrrolo[3,2-c]pyridin-6-yl)-3-fluorophenyl)-1-isopropylpiperidin-4-ol] gave an IC50 of 1.1 µM.
The figure for `Cc1nc(C2CCN(C3CC4CCC(C3)N4CC(C)C)CC2)cc2c1cc(-c1ccc(S(C)(=O)=O)cc1)n2C` (stereo not shown) [Example 114, 6-(1-(8-isobutyl-8-azabicyclo[3.2.1]octan-3-yl)piperidin-4-yl)-1,4-dimethyl-2-(4-(methylsulfonyl)phenyl)-1H-pyrrolo[3,2-c]pyridine] is greater than 50 µM; for `Cc1nc(-c2ccc(CN3CCN(CCC(C)(C)O)CC3)cc2)cc2c1c(F)c(-c1ccc(S(C)(=O)=O)cc1)n2C` [Example 115, 4-(4-(4-(3-fluoro-1,4-dimethyl-2-(4-(methylsulfonyl)phenyl)-1H-pyrrolo[3,2-c]pyridin-6-yl)benzyl)piperazin-1-yl)-2-methylbutan-2-ol] it is 2.1 µM; for `Cc1nc(-c2ccc(CN3CCN(CCC(C)(C)O)CC3)cc2)cc2c1cc(-c1ccc(S(C)(=O)=O)cc1)n2C1CC1` [Example 116, 4-[4-[[4-[1-cyclopropyl-4-methyl-2-(4-methylsulfonylphenyl)pyrrolo[3,2-c]pyridin-6-yl]phenyl]methyl]piperazin-1-yl]-2-methyl-butan-2-ol] it is 19 µM.
The figure for `CC(C)N1CCN(c2ccc(-c3cc4c(cc(-c5ccc(S(C)(=O)=O)cc5)n4C)c(C(C)(C)O)n3)cc2)CC1` [Example 118, 2-[6-[4-(4-isopropylpiperazin-1-yl)phenyl]-1-methyl-2-(4-methylsulfonylphenyl)pyrrolo[3,2-c]pyridin-4-yl]propan-2-ol] is 8.1 µM.
On to `CC(C)(O)CN1C2CCC1CN(Cc1ccc(-c3cc4c(cn3)cc(-c3ccc(S(C)(=O)=O)cc3)n4C3CC3)cc1)C2` [Example 121, 1-[3-[[4-[1-cyclopropyl-2-(4-methylsulfonylphenyl)pyrrolo[3,2-c]pyridin-6-yl]phenyl]methyl]-3,8-diazabicyclo[3.2.1]octan-8-yl]-2-methyl-propan-2-ol], for which the IC50 was greater than 50 µM.
`Cc1nc(-c2ccc(CN3CCN(CC(C)(C)O)CC3)cc2)cc2c1c(F)c(-c1ccc(S(C)(=O)=O)cc1)n2C` [Example 122, 1-(4-(4-(3-fluoro-1,4-dimethyl-2-(4-(methylsulfonyl)phenyl)-1H-pyrrolo[3,2-c]pyridin-6-yl)benzyl)piperazin-1-yl)-2-methylpropan-2-ol] displayed an IC50 of 3.7 µM.
On to `Cc1nc(-c2ccc(CN3CCN(CC(C)(C)O)CC3)cc2)cc2c1cc(-c1ccc(S(C)(=O)=O)cc1)n2C1CC1` [Example 123, 1-(4-(4-(1-cyclopropyl-4-methyl-2-(4-(methylsulfonyl)phenyl)-1H-pyrrolo[3,2-c]pyridin-6-yl)benzyl)piperazin-1-yl)-2-methylpropan-2-ol], for which the IC50 was 17.6 µM.
Consider `Cc1nc(-c2ccc(CN3CCN(CC(C)(C)O)CC3)cc2)cc2c1cc(-c1ccc(S(C)(=O)=O)cc1)n2C(F)F` [Example 124, 1-(4-(4-(1-(difluoromethyl)-4-methyl-2-(4-(methylsulfonyl)phenyl)-1H-pyrrolo[3,2-c]pyridin-6-yl)benzyl)piperazin-1-yl)-2-methylpropan-2-ol], for which the IC50 is greater than 50 µM.
Then `CC(C)N1CCN(Cc2ccc(-c3cc4c(cc(-c5ccc(S(C)(=O)=O)cc5)n4C)c(C(C)(C)O)n3)cc2)CC1` [Example 125, 2-(6-(4-((4-isopropylpiperazin-1-yl)methyl)phenyl)-1-methyl-2-(4-(methylsulfonyl)phenyl)-1H-pyrrolo[3,2-c]pyridin-4-yl)propan-2-ol], with 11.3 µM.
In turn, `CC(C)(O)CN1CCN(Cc2ccc(-c3cc4c(cn3)cc(-c3ccc(S(C)(=O)=O)cc3)n4C3CC3)cc2)CC1` [Example 128, 1-(4-(4-(1-cyclopropyl-2-(4-(methylsulfonyl)phenyl)-1H-pyrrolo[3,2-c]pyridin-6-yl)benzyl)piperazin-1-yl)-2-methylpropan-2-ol] returned an IC50 of 7.9 µM. This IC50 and that of the compound before are within 1.5-fold of each other.
Then `CC(C)(O)CCN1CCN(Cc2ccc(-c3cc4c(cn3)cc(-c3ccc(S(C)(=O)=O)cc3)n4C3CC3)cc2)CC1` [Example 129, 4-(4-(4-(1-cyclopropyl-2-(4-(methylsulfonyl)phenyl)-1H-pyrrolo[3,2-c]pyridin-6-yl)benzyl)piperazin-1-yl)-2-methylbutan-2-ol], with 5.6 µM.
`CC(C)(O)CN1CC2CCC(C1)N2Cc1ccc(-c2cc3c(cn2)cc(-c2ccc(S(C)(=O)=O)cc2)n3C2CC2)cc1` [Example 130, 1-(8-(4-(1-cyclopropyl-2-(4-(methylsulfonyl)phenyl)-1H-pyrrolo[3,2-c]pyridin-6-yl)benzyl)-3,8-diazabicyclo[3.2.1]octan-3-yl)-2-methylpropan-2-ol] had a half-maximal inhibitory concentration (IC50) of 6.4 µM.
